Results taken from patent publication US4369325A, “1,3-Diaryl-2-imino-imidazolidines and compounds” (EGYT Gyogyszervegyeszeti Gyar, priority 1978, dated 1983).
Like-named read-outs stand apart in the source and are kept apart here.

What was measured:
[1] = LD50 determined on rats after oral administration; conditions: rat, in vivo
Description: (§1) 1,3-Bis(2',6'-dimethylphenyl)-2-imino-4-methyl-imidazoline fumarate is far more advantageous than Indomethacine also with regard to its toxicological properties. […] Based on the above, the new compound according to the invention can be applied in the treatment of inflammatory disorders with a far greater degree of safety than Indomethacine.

[2] = test system: carrageenin-induced plantar oedema; assay: carrageenin-induced plantar oedema test; assay type: in vivo, rats; conditions: Rattus norvegicus, read-out: ED50 value, carrageenin-induced plantar oedema test
[3] = test system: urine excretion; assay: Lipschitz test, urine excretion of rats; assay type: in vivo; conditions: for Urine: 5 hr, control 5.82
Description: Some of the compounds according to the invention also exert favourable diuretic effects.

[4] = antiphlogistic effect (test not specified); conditions: in vivo
[5] = test system: sodium:potassium ratio of the urine; assay: saluretic / DOCA-antagonizing effect, method of Kagawa (sodium:potassium ratio of the urine); assay type: in vivo, rats; conditions: for potassium-retentive diuretic effect: in words
Description: This means that these compounds promote the excretion of sodium ions to a far greater extent than that of potassium ions, thus the sodium:potassium ratio measured in the urine is favourably high. The saluretic effect was examined on rats according to the method of Kagawa (J. Pharm. Exp. Ther. 126, 123 /1959/). The sodium:potassium ratio of the urine was decreased experimentally by introducing deoxycorticosterone acetate (DOCA) into the animals, and the DOCA-antagonizing effects of the compounds were measured. The effects of the two new compounds examined in this test were essentially the same as that of Spironolactone, utilized as reference substance.

[6] = test system: isolated rat uterine horn; assay: spontaneous activity of isolated rat uterine horn in vitro
[7] = test system: longitudinal smooth muscle of guinea pig ileum; assay: spontaneous activity of the longitudinal smooth muscle of guinea pig ileum in vitro
[8] = test system: adjuvant arthritis; assay: adjuvant arthritis test; conditions: in vivo
[9] = test system: serotonine receptors; assay: blocking of serotonine receptors
Description: as §1

[10] = test system: gastric acid secretion; assay: gastric acid secretion; conditions: in vivo
Description: as §1

[11] = test system: histamine receptors; assay: blocking of histamine receptors
Description: as §1

[12] = in vivo
Description: as §1

[13] = test system: prostaglandine synthetase enzyme; assay: inhibition of prostaglandine synthetase enzyme; assay type: biochemical
Description: as §1

[14] = test system: cotton granuloma; assay: cotton granuloma test; conditions: in vivo
[15] = first experiment, 480 μg/animal p.o. with hormone substitution (DOCA) 12.5 μg/animal s.c.
[16] = second experiment, 480 μg/animal p.o. with hormone substitution (DOCA) 12.5 μg/animal s.c.

Compound: COc1ccc2c(c1)c(CC(=O)O)c(C)n2C(=O)c1ccc(Cl)cc1 [Indomethacine, reference compound]
- LD50 [1]: 20 mg/kg
- ED50 ([2]; po): 20 mg/kg

Compound: NC(N)=O [Urea, reference compound]
- Urine ([3]; 960 mg/kg p.o.): 11.54 ml/kgx5 hr.

Compound: Cc1cccc(C)c1N1CC(CC(N)=O)N(c2c(C)cccc2C)C1=N (centres unmarked) [1,3-Bis(2',6'-dimethylphenyl)-2-imino-4-carboxamidomethyl-imidazolidine]
- antiphlogistic effects [4]: significant antiphthlogistic effects

Compound: CC(=O)OCC(=O)[C@H]1CC[C@H]2[C@@H]3CCC4=CC(=O)CC[C@]4(C)[C@H]3CC[C@]12C [DOCA, deoxycorticosterone acetate, reference compound]
- Effects* ([5]; first experiment, DOCA alone, 12.5 μg/animal s.c.): 0.75
- Effects* ([5]; second experiment, DOCA alone, 12.5 μg/animal s.c.): 0.88

Compound: COC(=O)C1CN(c2c(C)cccc2C)C(=N)N1c1c(C)cccc1C (centres unmarked) [Methyl 1,3-bis(2',6'-dimethylphenyl)-2-imino-imidazolidine-4-carboxylate]
- potassium-retentive diuretic effect [5]: also exert potassium-retentive diuretic effect, they are, however, less effective than the compounds listed in Table 2

Compound: Cc1cccc(C)c1N1CC(C)N(c2c(C)cccc2C)C1=N (centres unmarked) [1,3-Bis(2',6'-dimethylphenyl)-2-imino-4-methylimidazolidine]
- potassium-retentive diuretic effect [5]: also exert potassium-retentive diuretic effect, they are, however, less effective than the compounds listed in Table 2
- spontaneous activity of isolated rat uterine horn [6]: increase the spontaneous activity
- spontaneous activity of the longitudinal smooth muscle of guinea pig ileum [7]: increase the spontaneous activity

Compound: Cc1cccc(C)c1N1CC(C(=O)O)N(c2c(C)cccc2C)C1=N (centres unmarked) [1,3-Bis(2',6'-dimethylphenyl)-2-imino-imidazolidine-4-carboxylic acid]
- antiphlogistic effects [4]: significant antiphthlogistic effects

Compound: CC(=O)S[C@@H]1CC2=CC(=O)CC[C@]2(C)[C@H]2CC[C@@]3(C)[C@@H](CC[C@@]34CCC(=O)O4)[C@H]12 [Spironolactone, reference compound]
- Effects* [5, 15]: 1.17
- Effects* [5, 16]: 1.19

Compound: Cc1cccc(C)c1N1C(=N)N(c2c(C)cccc2C)[C@@H](C)[C@H]1C [1,3-Bis(2',6'-dimethylphenyl)-2-imino-4,5-cis-dimethylimidazolidine]
- potassium-retentive diuretic effect [5]: also exert potassium-retentive diuretic effect, they are, however, less effective than the compounds listed in Table 2

Compound: CC1CN(c2ccc(Cl)cc2)C(=N)N1c1ccc(Cl)cc1 (centres unmarked) [1,3-Bis(4'-chlorophenyl)-2-imino-4-methyl-imidazolidine]
- antiphlogistic effects [4]: significant antiphthlogistic effects

Compound: Cc1cccc(C)c1N1CC(CCl)N(c2c(C)cccc2C)C1=N (centres unmarked) [1,3-Bis(2',6'-dimethylphenyl)-2-imino-4-chloromethyl-imidazolidine]
- antiphlogistic effects [4]: significant antiphthlogistic effects

Compound: Cc1cccc(N2CC(C)N(c3ccc(Cl)cc3)C2=N)c1C (centres unmarked) [1-(2',3'-Dimethylphenyl)-2-imino-3-(4'-chlorophenyl)-4-methyl-imidazolidine]
- potassium-retentive diuretic effect [5]: also exert potassium-retentive diuretic effect, they are, however, less effective than the compounds listed in Table 2

Compound: CCOC(=O)NC(=S)N=C1N(c2c(C)cccc2C)CC(C)N1c1c(C)cccc1C (centres unmarked) [1-(1',3'-Bis/2",6"-dimethylphenyl/-4'-methyl-imidazolidine-2'-ylidene)-3-carbethoxy-thiourea]
- Urine ([3]; 25 mg/kg p.o.): 11.16 ml/kgx5 hr.
- diuretic effect / increase of urine excretion ([3]; rats, compared with urea): increases the urine excretion of rats to the same degree as urea
- Effects* [5, 15]: 1.02

Compound: CCOC(=O)N=C1N(c2c(C)cccc2C)CC(C)N1c1c(C)cccc1C (centres unmarked) [1,3-Bis(2',6'-dimethylphenyl)-2-carbethoxyimino-4-methyl-imidazolidine]
- Effects* [5, 16]: 1.19

Compound: Cc1cccc(C)c1N1C(=N)N(c2ccc(Cl)cc2)CC1C (centres unmarked) [1-(4'-Chlorophenyl)-2-imino-3-(2',6'-dimethylphenyl)-4-methyl-imidazolidine]
- antiphlogistic effects [4]: significant antiphthlogistic effects

Compound: COc1ccc(COC(=O)N=C2N(c3c(C)cccc3C)CC(C)N2c2c(C)cccc2C)cc1 (centres unmarked) [1,3-Bis(2',6'-dimethylphenyl)-2-(p-methoxy-benzyloxycarbonyl)-imino-4-methyl-imidazolidine]
- potassium-retentive diuretic effect [5]: strong potassium-retentive diuretic effect

Compound: Cc1cccc(C)c1N1CC(C)N(c2c(C)cccc2C)C1=N.O=C(O)/C=C/C(=O)O (centres unmarked) [1,3-bis(2',6'-dimethylphenyl)-2-imino-4-methyl-imidazolidine fumarate]
- activity in the adjuvant arthritis test [8]: considerable activity
- connection of the antiphlogistic effect with blocking of serotonine receptors [9]: not connected with the blocking of serotonine or histamine receptors
- gastric acid secretion [10]: decreases gastric acid secretion to a medium degree
- LD50 [1]: 150 mg/kg
- connection of the antiphlogistic effect with blocking of histamine receptors [11]: not connected with the blocking of serotonine or histamine receptors
- ulcerogeneous side effect [12]: far lower than that of Indomethacine
- inhibition of prostaglandine synthetase enzyme [13]: does not inhibit the function of prostaglandine synthetase enzyme
- ED50 ([2]; rats, oral administration): 11 mg/kg
- activity in the cotton granuloma test [14]: considerable activity
